We go through 57 compounds from patent US7179832B2, “Glycogen synthase kinase 3β inhibitor, composition and process for the preparation thereof” (Crystalgenomics, Inc., priority 2003, dated 2007).

One may read the IC50 as the point on the concentration scale where inhibition reaches its midpoint.

Chain of GSK-3β (P49841 whole entry): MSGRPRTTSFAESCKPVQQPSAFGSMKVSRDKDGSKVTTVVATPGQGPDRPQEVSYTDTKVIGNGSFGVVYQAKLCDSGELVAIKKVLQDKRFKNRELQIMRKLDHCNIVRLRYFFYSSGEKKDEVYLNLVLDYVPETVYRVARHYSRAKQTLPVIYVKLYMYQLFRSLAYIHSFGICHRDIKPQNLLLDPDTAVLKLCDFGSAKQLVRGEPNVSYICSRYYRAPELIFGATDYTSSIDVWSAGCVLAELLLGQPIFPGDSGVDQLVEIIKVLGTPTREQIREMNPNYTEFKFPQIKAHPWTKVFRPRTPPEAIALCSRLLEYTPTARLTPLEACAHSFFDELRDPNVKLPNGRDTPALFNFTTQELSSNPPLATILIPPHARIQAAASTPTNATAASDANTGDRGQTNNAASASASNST

The first assay concerns the target GSK-3β (Homo sapiens, UniProt P49841). In words: Assay for GSK-3β inhibiting activity (32P-ATP, phospho-CREB peptide substrate, filter paper, CPM). Type of assay: biochemical. As to conditions: GSK-3β inhibiting activity; 100 nM GSK-3β protein, 100 μM phospho-CREB peptide, 100 μM ATP, 30° C. for 1 hour; read-out: IC50. The procedure:
Assay for GSK-3β inhibiting activity
First, PCR (polymerase chain reaction) was carried out using human DNA as a template as well as primers which were designed to correspond to the 3′- and 5′ ends of the polynucleotide coding human GSK-3β gene (Genbank Accession No.: L33801). The BamH1/XhoI fragment of the amplified PCR product thus obtained was inserted into the pGex vector between the BamH1 and XhoI sites, and the vector obtained was transformed into E. coli BL21(DE3). The transformed cells thus obtained was incubated in […] (1% Bacto-trypton, 0.5% yeast extract, 1% NaCl) containing ampicillin ([…]) until the optical density at 600 nm reached about 0.5. The cultured mixture was cooled to 18° C. and isopropyl β-D-thiogalacto-pyranoside (IPTG) was added thereto to a final concentration of 0.5 mM. After 16 hours, the resultant was centrifuged at 10,000×g for 10 min, the collected cells were suspended in a buffer solution (30 mM Tris-HCl (pH 7.5), 100 mM NaCl, 5% glycerol, 2 mM DTT) and the cells were disrupted using Sonic Dismembrator (Fisher, U.S.A.) in a ice bath. The resulting solution was centrifuged at 16,000 rpm for 30 minutes. […] The purified GSK-3β protein was diluted in a buffer solution (20 mM HEPES (pH 7.5), 5% glycerol, 2 mM DTT) to a final concentration of 50 mM NaCl and the resulting solution was subjected to mono S column chromatography (eluent: linear gradient from 0M to 1M NaCl buffer) using mono S column (Pharmacia Biotech, U.S.A.) equilibrated in the same buffer solution to obtain GSK-3β protein.
The reaction was stopped by adding 5 μl of 5% phosphoric acid to 25 μl of the resulting solution. The resulting mixture was centrifuged at 15,000 rpm for 10 min, 20 μl of the supernatant was added dropwise to Whatman p81 filter paper, and then, the resulting filter paper was washed with 0.5% phosphate buffer for 10 min. The filter paper was further washed 3 times and the enzymatic activity was determined by examining the extent of phospho-CREB peptide phosphorylation which is represented by the unit of count per minute (CPM), measured with a β-counter (Packard, USA).
The GSK-3β inhibiting activity was then calculated in accordance with the following equation:
[formula] wherein the blank represents a value obtained without the use of the enzyme and the compound of the present invention, and the control, in the absence of the compound of the present invention.
In the case of `CS(=O)(=O)Nc1ccc(CCNC(=O)c2ccc(O)c3[nH]c(-c4ccccc4)nc23)cc1` [Compound 64], the concentration for half-maximal inhibition (IC50) stood at 0.03 µM.
On the same count and under the same terms, to `Cc1ccc(S(=O)(=O)Nc2ccc(CCNC(=O)c3ccc(O)c4[nH]c(-c5ccccc5)nc34)cc2)cc1` [Compound 65] belongs 0.06 µM; to `O=C(NCCN1CCOCC1)c1ccc(O)c2[nH]c(-c3ccccc3)nc12` [Compound 66], more than 1 µM; to `O=C(NCCc1ccc(N2C(=O)c3ccccc3C2=O)cc1)c1ccc(O)c2[nH]c(-c3ccccc3)nc12` [Compound 67], 0.16 µM.
On to `O=C(NCCNc1ccc([N+](=O)[O-])cn1)c1ccc(O)c2[nH]c(-c3ccccc3)nc12` [Compound 69], for which the half-inhibitory concentration (IC50) was more than 1 µM.
Consider `O=C(NCCc1ccccn1)c1ccc(O)c2[nH]c(-c3ccccc3)nc12` [Compound 70], for which the IC50 is more than 1 µM.
Turning to `O=C(NCCc1ccccc1)c1ccc(O)c2[nH]c(-c3ccc(Cl)cc3)nc12` [Compound 71], the IC50 is more than 1 µM.
For the compound `O=C(NCCc1ccc([N+](=O)[O-])cc1)c1ccc(O)c2[nH]c(-c3ccc(Cl)cc3)nc12` [Compound 72], the IC50 was found to be 0.12 µM.
For `Nc1ccc(CCNC(=O)c2ccc(O)c3[nH]c(-c4ccc(Cl)cc4)nc23)cc1` [Compound 73], the half-inhibitory concentration (IC50) is more than 1 µM.
As for `O=C(NCCc1ccc(O)cc1)c1ccc(O)c2[nH]c(-c3ccc(Cl)cc3)nc12` [Compound 74], the IC50 was more than 1 µM.
Still for that read-out and setting: the result for `CS(=O)(=O)Nc1ccc(CCNC(=O)c2ccc(O)c3nc(-c4ccc(Cl)cc4)[nH]c23)cc1` [Compound 75] reads 0.009 µM; that for `Cc1ccc(S(=O)(=O)Nc2ccc(CCNC(=O)c3ccc(O)c4[nH]c(-c5ccc(Cl)cc5)nc34)cc2)cc1` [Compound 76], 0.05 µM; that for `COc1ccc(CCNC(=O)c2ccc(O)c3[nH]c(-c4ccc(Cl)cc4)nc23)cc1O` [Compound 77], 0.033 µM.
On the same count and under the same terms, to `O=C(NCCN1CCOCC1)c1ccc(O)c2[nH]c(-c3ccc(Cl)cc3)nc12` [Compound 78] belongs more than 1 µM.
Same read-out and setting: to `O=C(NCCc1ccc(N2C(=O)c3ccccc3C2=O)cc1)c1ccc(O)c2[nH]c(-c3ccc(Cl)cc3)nc12` [Compound 79] belongs 0.12 µM; to `CCS(=O)(=O)Nc1ccc(CCNC(=O)c2ccc(O)c3[nH]c(-c4ccc(Cl)cc4)nc23)cc1` [Compound 80], 0.07 µM.
Take `O=C(NCCNc1ccc([N+](=O)[O-])cn1)c1ccc(O)c2[nH]c(-c3ccc(Cl)cc3)nc12` [Compound 81]: the IC50 is more than 1 µM.
The same measure, in the same setting: the result for `O=C(NCCc1ccccn1)c1ccc(O)c2[nH]c(-c3ccc(Cl)cc3)nc12` [Compound 82] reads more than 1 µM; that for `O=C(NCCc1c[nH]cn1)c1ccc(O)c2[nH]c(-c3ccc(Cl)cc3)nc12` [Compound 83], more than 1 µM.
Still for that read-out and setting: the result for `CN1CCN(CC(=O)Nc2ccc(CCNC(=O)c3ccc(O)c4[nH]c(-c5ccc(Cl)cc5)nc34)cc2)CC1` [Compound 86] reads 0.25 µM.
Still for that read-out and setting: to `CCN1CCN(CC(=O)Nc2ccc(CCNC(=O)c3ccc(O)c4[nH]c(-c5ccc(Cl)cc5)nc34)cc2)CC1` [Compound 87] belongs 0.23 µM.
On to `CN(C)CC(=O)Nc1ccc(CCNC(=O)c2ccc(O)c3[nH]c(-c4ccc(Cl)cc4)nc23)cc1` [Compound 88], for which the IC50 came to 0.22 µM.
On the same count and under the same terms, to `CCN(CC)CC(=O)Nc1ccc(CCNC(=O)c2ccc(O)c3[nH]c(-c4ccc(Cl)cc4)nc23)cc1` [Compound 89] belongs 0.32 µM.
Still for that read-out and setting: the result for `Nc1ccc(CCNC(=O)c2ccc(O)c3[nH]c(-c4ccc(Cl)cc4)nc23)cc1` [Compound 90] reads 0.13 µM; that for `O=C(CN1CCOCC1)Nc1ccc(CCNC(=O)c2ccc(O)c3[nH]c(-c4ccc(Cl)cc4)nc23)cc1` [Compound 92], 0.08 µM.
Same read-out and setting: to `CN(C)c1ccc(CCNC(=O)c2ccc(O)c3[nH]c(-c4ccc(Cl)cc4)nc23)cc1` [Compound 93] belongs more than 1 µM; to `O=C(NCCc1ccc(OCCN2CCOCC2)cc1)c1ccc(O)c2[nH]c(-c3ccc(Cl)cc3)nc12` [Compound 94], more than 5 µM; to `CN1CCN(CCOc2ccc(CCNC(=O)c3ccc(O)c4[nH]c(-c5ccc(Cl)cc5)nc34)cc2)CC1` [Compound 95], more than 1 µM.
With `O=C(NCCc1ccccc1O)c1ccc(O)c2[nH]c(-c3ccc(Cl)cc3)nc12` [Compound 96], the 50% inhibitory concentration (IC50) was determined as 0.022 µM.
Consider `COc1ccccc1CCNC(=O)c1ccc(O)c2[nH]c(-c3ccc(Cl)cc3)nc12` [Compound 97], for which the IC50 stood at 0.17 µM.
Same read-out and setting: the result for `O=C(NCCc1cccc(Br)c1)c1ccc(O)c2[nH]c(-c3ccc(Cl)cc3)nc12` [Compound 98] reads more than 1 µM; that for `O=C(NCCc1ccc([N+](=O)[O-])cc1)c1ccc(O)c2[nH]c(-c3ccc(Cl)cc3Cl)nc12` [Compound 100], 0.2 µM.
With `COc1cc(CCNC(=O)c2ccc(O)c3[nH]c(-c4ccc(Cl)cc4Cl)nc23)ccc1O` [Compound 101], the 50% inhibitory concentration (IC50) was more than 1 µM.
For the compound `COc1ccc(CCNC(=O)c2ccc(O)c3[nH]c(-c4ccc(Cl)cc4Cl)nc23)cc1O` [Compound 102], the IC50 is 0.23 µM.
With `NCCNC(=O)c1ccc(O)c2[nH]c(-c3ccc(Cl)cc3Cl)nc12` [Compound 103], the half-inhibitory concentration (IC50) was more than 5 µM.
Regarding `O=C(NCCc1ccc(O)cc1)c1ccc(O)c2[nH]c(-c3ccc(Cl)cc3Cl)nc12` [Compound 104], the concentration for half-maximal inhibition (IC50) is more than 1 µM.
The same measure, in the same setting: to `Cc1ccc(S(=O)(=O)Nc2ccc(CCNC(=O)c3ccc(O)c4[nH]c(-c5ccc(Cl)cc5Cl)nc34)cc2)cc1` [Compound 105] belongs 0.05 µM; to `O=C(NCCc1ccc(N2C(=O)c3ccccc3C2=O)cc1)c1ccc(O)c2[nH]c(-c3ccc(Cl)cc3Cl)nc12` [Compound 107], 0.05 µM.
As to `O=C(NCCN1CCOCC1)c1ccc(O)c2[nH]c(-c3ccc(Cl)cc3Cl)nc12` [Compound 108], the IC50 was more than 1 µM.
Consider `O=C(NCCNc1ccc([N+](=O)[O-])cn1)c1ccc(O)c2[nH]c(-c3ccc(Cl)cc3Cl)nc12` [Compound 110], for which the IC50 came out at 0.28 µM.
The same measure, in the same setting: to `O=C(NCCc1ccccn1)c1ccc(O)c2[nH]c(-c3ccc(Cl)cc3Cl)nc12` [Compound 111] belongs more than 1 µM; to `CC(=O)Nc1ccc(CCNC(=O)c2ccc(O)c3[nH]c(-c4ccc(Cl)cc4Cl)nc23)cc1` [Compound 112], 0.04 µM; to `CCCCC(=O)Nc1ccc(CCNC(=O)c2ccc(O)c3[nH]c(-c4ccc(Cl)cc4Cl)nc23)cc1` [Compound 113], 0.19 µM.
On the same count and under the same terms, to `CS(=O)(=O)Nc1ccc(CCNC(=O)c2ccc(O)c3[nH]c(-c4ccc(F)cc4)nc23)cc1` [Compound 114] belongs 0.001 µM.
The same measure, in the same setting: to `Cc1ccc(S(=O)(=O)Nc2ccc(CCNC(=O)c3ccc(O)c4nc(-c5ccc(F)cc5)[nH]c34)cc2)cc1` [Compound 115] belongs 0.026 µM; to `CCS(=O)(=O)Nc1ccc(CCNC(=O)c2ccc(O)c3[nH]c(-c4ccc(F)cc4)nc23)cc1` [Compound 116], 0.003 µM; to `CC(=O)Nc1ccc(CCNC(=O)c2ccc(O)c3[nH]c(-c4ccc(F)cc4)nc23)cc1` [Compound 117], 0.03 µM.
With `CN1CCN(CCNC(=O)c2ccc(O)c3[nH]c(-c4ccc(F)cc4)nc23)CC1` [Compound 118], the IC50 is more than 5 µM.
The same measure, in the same setting: the result for `O=C(NCCN1CCOCC1)c1ccc(O)c2[nH]c(-c3ccc(F)cc3)nc12` [Compound 119] reads more than 5 µM; that for `CCCCC(=O)Nc1ccc(CCNC(=O)c2ccc(O)c3[nH]c(-c4ccc(F)cc4)nc23)cc1` [Compound 120], 0.07 µM; that for `O=C(NCCc1ccc(O)cc1)c1ccc(O)c2[nH]c(-c3ccc(F)cc3)nc12` [Compound 121], 0.03 µM.
Same read-out and setting: the result for `CS(=O)(=O)Nc1ccc(NCCNC(=O)c2ccc(O)c3[nH]c(-c4ccc(F)cc4)nc23)nc1` [Compound 123] reads 0.05 µM.
The same measure, in the same setting: the result for `Cc1ccc(S(=O)(=O)Nc2ccc(NCCNC(=O)c3ccc(O)c4[nH]c(-c5ccc(F)cc5)nc34)nc2)cc1` [Compound 124] reads 0.07 µM; that for `O=C(NCCc1c[nH]cn1)c1ccc(O)c2[nH]c(-c3ccc(F)cc3)nc12` [Compound 125], more than 1 µM.
Turning to `CN1CCN(CC(=O)Nc2ccc(CCNC(=O)c3ccc(O)c4[nH]c(-c5ccc(F)cc5)nc34)cc2)CC1` [Compound 127], the IC50 is 0.18 µM.
With `CCN1CCN(CC(=O)Nc2ccc(CCNC(=O)c3ccc(O)c4[nH]c(-c5ccc(F)cc5)nc34)cc2)CC1` [Compound 128], the IC50 turned out to be 0.15 µM.

Still in this assay, the particulars now being: IC50 (μM).
`CCS(=O)(=O)Nc1ccc(CCNC(=O)c2ccc(O)c3nc(-c4ccc(Cl)cc4Cl)[nH]c23)cc1` [Compound 109]: the IC50 came out at 0.03 µM.
